For this test, the system named is HCT116 viability, CellTiter-Glo ATP luminescence. Kind of test: cytotoxicity toward HCT116 cells – cell-based, CellTiter-Glo luminescence, IC50, dose response (AID 1117332). (In general: Cellular ATP, detected with luciferase, serves as a proxy for viable cell number.)

The source made the active and inactive calls. How the calls were made is not given here. Where only a bound is given, the exact number is not on record here.

Turning to `CC(=O)[O][Hg][c]1ccccc1`, the IC50 (usually the concentration at which inhibition is half-maximal) is 2800 nM.
The value for `Cc1ccc([N+](=O)[O-])[c]2c1[O][Hg]2` was 2830 nM; that for `O=C1[O][Bi][O]c2ccccc21` was > 20000 nM (inactive); that for `CCCCCCCCCCCCCC[N+](C)(C)C` was 2290 nM.
The same measure for `OCCN1CCN(CC/C=C2/c3ccccc3Sc3ccc(C(F)(F)F)cc32)CC1`: 4580 nM; for `O=C(O)C1(C(=O)O)CCC1.[NH2-].[NH2-].[Pt+2]`: > 20000 nM (inactive).
